Source: patent US10280156B2, “Heteroaromatic chalcone derivatives and their medical use” (Medizinische Universität Wien, priority 2014, dated 2019)

Legend:
OCI-Ly7 = experiment: Viability test on OCI-Ly7 cells, 48 h; format: cell-based, human; conditions: Homo sapiens, OCI-Ly7, 48 h, 48 h incubation; nd = no significant cytotoxic activity up to 100 μM
Method: (§1) JURKAT and CCRF-CEM (T-cell acute lymphoblastic leukemia), HL60 and K562 representing acute and chronic myeloid leukemia, respectively, the chronic lymphocytic leukemia cell line MEC-1, and the diffuse large B-cell lymphoma cell line U-2940 were cultured in Gibco RPMI 1640+GlutaMAX (Life Technologies, Carlsbad, Calif., USA) supplemented with 10% fetal bovine serum gold (FBS gold; PAA Laboratories, Pasching, Austria) and 1% PenStrep (100 U/ml penicillin and 100 μg/ml streptomycin; PAA Laboratories), and maintained at 37° C. in humidified atmosphere with 5% CO2. The diffuse large B-cell lymphoma cell line OCI-LY7 was cultured in Gibco IMDM+GlutaMAX and 25 mM HEPES (Life Technologies) containing 20% FBS gold and 1% PenStrep.
(§2) All experiments with hematological cell lines were done using phenol red-free RPMI 1640+L-glutamine (PAA Laboratories) supplemented with 1% PenStrep and 10% FBS gold, except experiments with OCI-Ly7 which were carried out in Gibco IMEM+GlutaMAX and 25 mM HEPES containing 20% FBS gold and 1% PenStrep. Cells were incubated in triplicates with increasing concentrations of the compounds for 48 h, changes in viability were determined using the cell proliferation and cytotoxicity assays EZ4U (Biomedica Group, Austria) and CellTiter-Blue Cell Viability Assay (Promega, Madison, Wis., USA) following instructions of the manufacturers. IC50 values were calculated from two independent experiments using GraphPad Prism 5 software.
(§3) Initially, compounds were biologically tested in six concentration steps (0.1 μM; 1 μM; 5 μM; 10 μM; 50 μM; and 100 μM) using the CellTiter-Blue Cell Viability Assay (Promega, Madison, Wis., USA) and an incubation time of 48 hours. […] IC50 values were calculated from at least two independent experiments with 3 replicates each. In order to evaluate the biologic activity of the new compounds, cytotoxicity was compared to that of fludarabine, an already approved drug for the treatment of various B-cell malignancies. […] Differences in IC50 values for the different cell types can be explained by the biological and genetic particularities of each subtype of B-cell Non-Hodgkin lymphoma (Stacchini A et al. Leukemia Res 1999, 23, 127-136; Sambade C et al. Int J Cancer 2006, 118, 555-563; Chang H et al. Leukemia lymphoma 1995, 19, 165-171; Tweeddale M E et al. Blood 1987, 69, 1307-1314; Tweeddale M et al. Blood 1989, 74, 572-578).

MEC1 = experiment: Viability test (CellTiter-Blue/EZ4U) on MEC1 cells, 48 h; format: cell-based, human; conditions: Homo sapiens, MEC1, 48 h, 48 h incubation; nd = no significant cytotoxic activity up to 100 μM
Method: as §1, §2, §3

U-2940 = experiment: Viability test on U-2940 cells, 48 h; format: cell-based, human; conditions: 48 h incubation, nd = no significant cytotoxic activity up to 100 μM
Method: as §1, §2, §3

M2-10B4 = experiment: Viability test on mouse fibroblast cell line M2-10B4, 48 h; format: cell-based; conditions: 48 h incubation, mouse fibroblast cell line
Method: as §2
Structurally seen, the small molecule compound 1 represents a typical chalcone scaffold. It is characterized by an ortho-ethoxy-substituted phenyl part as ring A and a 2-naphthyl moiety symbolizing ring B. The focus of the present study was to guide the systematic identification of a growth inhibitor with specificity to neoplastic cells, as cytotoxicity towards healthy cells is mostly associated with adverse effects, which can be related to morbidity and mortality of the patient (Milligan D W et al. Brit J Haematol 2006, 135, 450-474). To discriminate in vitro between structural elements necessary for potent cytotoxicity towards tumor cells which, at the same time, clearly show less activity on normal cells, the compounds were additionally tested on the murine bone marrow fibroblast cell line M2-10B4. This cell line is regularly used as feeder layer when cultured with patient cells providing additional support and survival signals in particular in drug screens (Kurtova A V et al. Blood 2009, 114, 4441-4450).
as §3

SMILES	IC50 (OCI-Ly7) [nM]	IC50 (MEC1) [nM]	IC50 (U-2940; Homo sapiens, U-2940, 48 h) [nM]	IC50 (M2-10B4; Mus musculus, M210B4, 48 h) [nM]	melting point [°C]	IC50 (U-2940) [nM]	IC50 (M2-10B4) [nM]
CCOc1ccccc1C(=O)/C=C/c1ccc2sccc2c1 [Compound 13, 3-(5-Benzo[b]thienyl)-1-(2-ethoxyphenyl)-2-propen-1-one]	340	340	9050	21100	104 to 106	–	–
CCOc1ccccc1C(=O)/C=C/c1ccc2ccccc2c1 [Compound 1, 3-(2-Napthyl)-1-(2-ethoxyphenyl)-2-propen-1-one]	60	60	2430	7800	96 to 97	4430	–
CC(C)Oc1ccccc1C(=O)/C=C/c1ccc2ccccc2c1 [Compound 5]	150	1170	11100	> 100000	82 to 85	–	–
CCOc1ccccc1C(=O)/C=C/c1cccc2ccccc12 [Compound 10, 1-(2-Ethoxyphenyl)-3-(1-naphthyl)-2-propen-1-one]	1480	1900	7370	14000	109 to 110	–	17000
CCOc1ccccc1C(=O)/C=C/c1ccc2c(c1)OCO2 [Compound 9, 3-(1,3-Benzodioxol-5-yl)-1-(2-ethoxyphenyl)-2-propen-1-one]	130	1100	9490	> 100000	65 to 70	–	–
